≈ marks a conversion by molar mass, not a printed value. Like-named read-outs stand apart in the source and are kept apart here.
Tests used:
Format in all cases: cell-based
[1] = tested on: Sh. flexneri2a; experiment: In vitro antibacterial activity, two-fold agar-plate dilution method (MIC), Sh. flexneri 2a; conditions: Shigella flexneri, HI-agar, 37° C., 20 hours, 10^8 viable cells per ml, read-out: minimal inhibitory concentration (MIC)
Protocol: (§1) In vitro antibacterial activity was determined by the two-fold agar-plate dilution method as described below.
(§2) One loopful of an overnight culture of each test strain in Trypticase-soy broth (10^8 viable cells per ml) was streaked on heart infusion agar (HI-agar) containing graded concentrations of antibiotics, and the minimal inhibitory concentration (MIC) was expressed in terms of μg/ml after incubation at 37° C. for 20 hours.

[2] = tested on: Sal. Enteritidis; experiment: In vitro antibacterial activity, two-fold agar-plate dilution method (MIC), Sal. Enteritidis; conditions: Salmonella enterica, read-out: minimal inhibitory concentration (MIC)
Protocol: as §1, §2

[3] = tested on: Ps. aeruginosa721; experiment: In vitro antibacterial activity, two-fold agar-plate dilution method (MIC), Ps. aeruginosa 721; conditions: Pseudomonas aeruginosa, read-out: minimal inhibitory concentration (MIC)
Protocol: as §1, §2

[4] = tested on: E coli 341; experiment: In vitro antibacterial activity, two-fold agar-plate dilution method (MIC), E coli 341; conditions: read-out: minimal inhibitory concentration (MIC)
Protocol: as §1, §2

[5] = tested on: Kl. pneumoniae 417; experiment: In vitro antibacterial activity, two-fold agar-plate dilution method (MIC), Kl. pneumoniae 417; conditions: Klebsiella pneumoniae, HI-agar, 37° C., 20 hours, 10^8 viable cells per ml, read-out: minimal inhibitory concentration (MIC)
Protocol: as §1, §2

[6] = tested on: Pr. mirabilis 525; experiment: In vitro antibacterial activity, two-fold agar-plate dilution method (MIC), Pr. mirabilis 525; conditions: read-out: minimal inhibitory concentration (MIC)
Protocol: as §1, §2

[7] = Ps. aeruginosa721, HI-agar, 37° C., 20 hours, 10^8 viable cells per ml
[8] = E coli 341, HI-agar, 37° C., 20 hours, 10^8 viable cells per ml
[9] = Proteus mirabilis, Pr. mirabilis 525, HI-agar, 37° C., 20 hours, 10^8 viable cells per ml
[10] = Sal. Enteritidis, HI-agar, 37° C., 20 hours, 10^8 viable cells per ml

SMILES | MIC [1] [µg/mL] | MIC ([2]; ENTERITIDIS, 20 h) [µg/mL] | MIC [3, 7] [µg/mL] | MIC [4, 8] [µg/mL] | MIC [5] [µg/mL] | MIC [6, 9] [µg/mL] | MIC [2, 10] [µg/mL] | MIC ([3]; 20 h) [µg/mL] | MIC ([6]; Proteus mirabilis, 525, 20 h) [µg/mL] | MIC ([4]; 20 h) [µg/mL]
Cn1nnnc1SCC1=C(C(=O)O)N2C(=O)C(NC(=O)/C(=N\O)c3ccc(O)cc3)C2SC1 (stereo not drawn) [Test Compound (1), Sodium 7-[2-hydroxyimino-2-(4-hydroxyphenyl)acetamido]-3-(1-methyl-1H-tetrazol-5-yl)thiomethyl-3-cephem-4-carboxylate (syn isomer)] | 0.78 | 3.13 | 25 | 1.56 | 3.13 | 1.56 |  |  |  | 
Cn1nnnc1SCC1=C(C(=O)O)N2C(=O)C(NC(=O)/C(=N\O)c3cccc(O)c3)C2SC1 (stereo not drawn) [Test Compound (2), Sodium 7-(2-hydroxyimino-2-(3-hydroxyphenyl)acetamido]-3-(1-methyl-1H-tetrazol-5-yl)thiomethyl-3-cephem-4-carboxylate (syn isomer)] | 0.78 |  | 100 | 0.78 | 0.78 | 1.56 | 1.56 |  |  | 
CC(=O)OCC1=C(C(=O)O)N2C(=O)C(NC(=O)/C(=N\O)c3ccc(O)c(Cl)c3)C2SC1 (stereo not drawn) [Test Compound (3), Sodium 7-[2-hydroxyimino-2-(3-chloro-4-hydroxyphenyl)acetamido]cephalosporanate (syn isomer)] | 3.13 |  |  | 6.25 | 3.13 | 0.39 | 0.78 | 3.13 |  | 
O=C(O)C1=C(CSc2nncs2)CSC2C(NC(=O)/C(=N\O)c3cccc(O)c3)C(=O)N12 (stereo not drawn) [Test Compound (4), 7-[2-Hydroxyimino-2-[3-hydroxyphenyl)acetamido]-3-(1,3,4-thiadiazol-2-yl)thiomethyl-3-cephem-4-carboxylic acid (syn isomer)] | 0.39 (≈ 0.79 µM) |  | 12.5 (≈ 25.3 µM) | 0.78 (≈ 1.58 µM) | 3.13 (≈ 6.34 µM) | 1.56 (≈ 3.16 µM) | 0.39 (≈ 0.79 µM) |  |  | 
Cc1nnc(SCC2=C(C(=O)O)N3C(=O)C(NC(=O)/C(=N\O)c4cccc(O)c4)C3SC2)s1 (stereo not drawn) [Test Compound (5), 7-[2-Hydroxyimino-2-(3-hydroxyphenyl)acetamido]-3-(5-methyl-1,3,4-thiadiazol-2-yl)thiomethyl-3-cephem-4-carboxylic acid (syn isomer)] | 0.39 (≈ 0.768 µM) |  | 6.25 (≈ 12.3 µM) | 0.78 (≈ 1.54 µM) | 0.78 (≈ 1.54 µM) | 3.13 (≈ 6.17 µM) | 0.2 (≈ 0.394 µM) |  |  | 
Cn1nnnc1SCC1=C(C(=O)O)N2C(=O)C(NC(=O)/C(=N\OC(=O)c3ccccc3)c3cccc(O)c3)C2SC1 (stereo not drawn) [Test Compound (6), 7-[2-Benzoyloxyimino-2-(3-hydroxyphenyl)acetamido]-3-(1-methyl-1H-tetrazol-5-yl)thiomethyl-3-cephem-4-carboxylic acid (syn isomer)] | 0.78 (≈ 1.31 µM) |  | 12.5 (≈ 21 µM) | 1.56 (≈ 2.62 µM) | 0.39 (≈ 0.655 µM) | 0.78 (≈ 1.31 µM) | 0.39 (≈ 0.655 µM) |  |  | 
CCOC(=O)O/N=C(\C(=O)NC1C(=O)N2C(C(=O)O)=C(CSc3nnnn3C)CSC12)c1cccc(O)c1 (stereo not drawn) [Test Compound (7), 7-[2-Ethoxycarbonyloxyimino-2-(3-hydroxyphenyl)acetamido]-3-(1-methyl-1H-tetrazol-5-yl)thiomethyl-3-cephem-4-carboxylic acid (syn isomer)] | 1.56 (≈ 2.77 µM) |  | 25 (≈ 44.4 µM) | 3.13 (≈ 5.55 µM) | 0.39 (≈ 0.692 µM) | 0.39 (≈ 0.692 µM) | 0.2 (≈ 0.355 µM) |  |  | 
CC(=O)OCC1=C(C(=O)O)N2C(=O)C(NC(=O)/C(=N\O)c3cccc(O)c3)C2SC1 (stereo not drawn) [Test Compound (8), 7-[2-Hydroxyimino-2-(3-hydroxphenyl)acetamido]cephalosporanic acid (syn isomer)] | 0.78 (≈ 1.79 µM) | 1.56 (≈ 3.58 µM) | 25 (≈ 57.4 µM) | 0.78 (≈ 1.79 µM) | 1.56 (≈ 3.58 µM) |  |  |  | 1.56 (≈ 3.58 µM) | 
NC(=O)OCC1=C(C(=O)O)N2C(=O)C(NC(=O)/C(=N\O)c3cccc(O)c3)C2SC1 (stereo not drawn) [Test Compound (9), Sodium 7-[2-hydroxyimino-2-(3-hydroxyphenyl)acetamido]-3-carbamoyloxymethyl-3-cephem-4-carboxylate (syn isomer)] | 0.78 |  | 6.25 |  | 0.2 | 0.78 | 0.78 |  |  | 
Cn1nnnc1SCC1=C(C(=O)O)N2C(=O)C(NC(=O)/C(=N\O)c3ccc(O)c([N+](=O)[O-])c3)C2SC1 (stereo not drawn) [Test Compound (10), 7-[2-Hydroxyimino-2-(3-nitro-4-hydroxyphenyl)acetamido]-3-(1-methyl-1H-tetrazol-5-yl)thiomethyl-3-cephem-4-carboxylic acid (syn isomer)] | 1.56 (≈ 2.91 µM) |  |  | 3.13 (≈ 5.83 µM) | 0.39 (≈ 0.727 µM) | 0.2 (≈ 0.373 µM) | 0.2 (≈ 0.373 µM) |  |  | 
Cc1nnc(SCC2=C(C(=O)O)N3C(=O)C(NC(=O)/C(=N\O)c4ccccc4)C3SC2)s1 (stereo not drawn) [Test Compound (A), 7-(2-Hydroxyimino-2-phenylacetamido)-3-(5-methyl-1,3,4-thiadiazol-2-yl)thiomethyl-3-cephem-4-carboxylic acid (syn isomer), reference compound] | 6.25 (≈ 12.7 µM) | 6.25 (≈ 12.7 µM) | 50 (≈ 102 µM) |  | 12.5 (≈ 25.4 µM) | 25 (≈ 50.9 µM) |  |  |  | 12.5 (≈ 25.4 µM)
